Measured values taken from US20230040770A1, “HETEROCYCLIC COMPOUND AND USE THEREOF” (TAKEDA PHARMACEUTICAL COMPANY LIMITED, priority 2019, published 2023).

Molecular target: T1, human orexin type 2 receptor (Homo sapiens, UniProt O43614)
T1 construct: expressed in transfected cells
T1 sequence (O43614 1-444): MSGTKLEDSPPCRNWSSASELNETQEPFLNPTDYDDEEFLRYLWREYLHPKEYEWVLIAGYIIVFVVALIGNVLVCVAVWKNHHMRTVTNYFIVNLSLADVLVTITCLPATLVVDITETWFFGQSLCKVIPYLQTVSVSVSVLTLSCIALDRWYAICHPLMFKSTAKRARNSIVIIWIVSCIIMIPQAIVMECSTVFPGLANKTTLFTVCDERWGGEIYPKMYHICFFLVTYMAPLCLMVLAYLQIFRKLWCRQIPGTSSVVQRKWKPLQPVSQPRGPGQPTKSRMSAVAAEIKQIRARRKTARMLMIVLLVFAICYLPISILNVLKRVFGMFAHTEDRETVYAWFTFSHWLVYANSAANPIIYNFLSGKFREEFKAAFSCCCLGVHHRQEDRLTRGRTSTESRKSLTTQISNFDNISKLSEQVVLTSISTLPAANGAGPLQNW
Test: Measurement of orexin type 2 receptor agonist activity (calcium indicator fluorescence, CHO cells forcibly expressing human OX2 receptor)
Format: cell-based
Details: compound at 3 μM; 0% = DMSO, 100% = orexin A (human) 10 nM
Excerpt: To obtain a cell clone stably expressing human orexin type 2 receptor, human orexin type 2 receptor cDNA was inserted into pcDNA3.1(+) plasmid vector (Invitrogen), and a plasmid DNA for expression of human orexin type 2 receptor (pcDNA3.1(+)/hOX2R) was cloned. The plasmid DNA was introduced into CHO-dhfr cell by an electroporation method, and human orexin type 2 receptor expressing clone cells were obtained by limiting dilution method by using G418 drug resistance as a selection marker.
CHO cells forcibly expressing human OX2 receptor were seeded in each well of 384 well black transparent bottom plate (BD Falcon) at 7,500 cells/well, and cultured for one day in a 5% CO2 incubator at 37° C. After removal of the medium in the cell plate, assay buffer A containing a calcium indicator (HBSS (Thermo Fisher Scientific), 20 mM HEPES (Thermo Fisher Scientific), 0.1% BSA (Sigma-Aldrich), 2.5 μg/mL Fluo-4 AM (DOJINDO Chemical), 0.08% Pluronic F127 (DOJINDO Chemical), 1.25 mM probenecid (DOJINDO Chemical)) was added at 30 μL/well. The plate was stood for 30 min in a 5% CO2 incubator at 37° C., and further stood at room temperature for 30 min. A test compound prepared by diluting with assay buffer B (HBSS, 20 mM HEPES, 0.1% BSA) was added at 10 μL/well, and the fluorescence value was measured by FDSSμCELL (Hamamatsu Photonics K.K.) every one sec for 1 min, and thereafter every two sec for […]. The activity (%) of the test compound was calculated assuming that variation in the fluorescence value when DMSO was added instead of the test compound was 0%, and variation in the fluorescence value when orexin A (human) (PEPTIDE INSTITUTE, INC.) was added at the final concentration of 10 nM was 100%.

| OX2R agonist activity (3 μM, %) [%] | SMILES |
| --- | --- |
| 87 | CS(=O)(=O)N[C@@H]1[C@H](Cc2csc(-c3cc(F)cc(F)c3)n2)N(C(=O)C2(O)CCC2)CC1(F)F (racemic) [Example 136, rac-N-[(2S,3R)-2-{[2-(3,5-difluorophenyl)-1,3-thiazol-4-yl]methyl}-4,4-difluoro-1-(1-hydroxycyclobutane-1-carbonyl)pyrrolidin-3-yl]methanesulfonamide] |
| 93 | CCS(=O)(=O)N[C@@H]1[C@H](Cc2cccc(-c3cc(F)cc(F)c3)c2F)N(C(=O)N2CCC2)CC1(F)F [Example 283, N-{(2S,3R)-1-(azetidine-1-carbonyl)-4,4-difluoro-2-[(2,3′,5′-trifluoro[1,1′-biphenyl]-3-yl)methyl]pyrrolidin-3-yl}ethanesulfonamide] |
| 95 | Cc1cc(F)cc(-c2cccc(C[C@H]3[C@@H](NS(=O)(=O)C4CC4)C(F)(F)CN3C(=O)N3CCC3)c2F)c1 [Example 529, N-{(2S,3R)-1-(azetidine-1-carbonyl)-2-[(2,3′-difluroo-5′-methyl[1,1′-biphenyl]-3-yl)methyl]-4,4-difluoropyrrolidin-3-yl}cyclopropanesulfonamide] |
| 101 | O=C(C1CCO1)N1C[C@H](F)[C@H](NS(=O)(=O)C2CC2)[C@@H]1Cc1cccc(-c2cccc(F)c2F)c1F (stereo partly drawn) [Example 480, N-{(2S,3R,4S)-4-fluoro-1-(oxetane-2-carbonyl)-2-[(2,2′,3′-trifluoro[1,1′-biphenyl]-3-yl)methyl]pyrrolidin-3-yl}cyclopropanesulfonamide] |
| 94 | CS(=O)(=O)N[C@@H]1[C@H](Cc2cccc(-c3ccccc3)c2F)N(C(=O)C2CC(F)C2)CC1(F)F (stereo partly drawn) [Example 440, N-[(2S,3R)-4,4-difluoro-2-[(2-fluoro[1,1′-biphenyl]-3-yl)methyl]-1-(3-fluorocyclobutane-1-carbonyl)pyrrolidin-3-yl]methanesulfonamide] |
| 95 | CC(C)C(=O)N1CC(F)(F)[C@H](NS(C)(=O)=O)[C@@H]1Cc1cccc(-c2ccccc2)c1F [Example 77, N-[(2S,3R)-4,4-difluoro-2-[(2-fluoro[1,1′-biphenyl]-3-yl)methyl]-1-(2-methylpropanoyl)pyrrolidin-3-yl]methanesulfonamide] |
| 92 | O=C(C1CCO1)N1CC(F)(F)[C@H](NS(=O)(=O)C2CC2)[C@@H]1Cc1cccc(-c2cc(F)cc(F)c2)c1F (stereo partly drawn) [Example 162, N-{(2S,3R)-4,4-difluoro-1-(oxetane-2-carbonyl)-2-[(2,3′,5′-trifluoro[1,1′-biphenyl]-3-yl)methyl]pyrrolidin-3-yl}cyclopropanesulfonamide] |
| 93 | O=C(C1CC1)N1C[C@H](F)[C@H](NS(=O)(=O)C2CC2)[C@@H]1Cc1cccc(-c2cc(F)ccc2F)c1F [Example 379, N-{(2S,3R,4S)-1-(cyclopropanecarbonyl)-4-fluoro-2-[(2,2′,5′-trifluoro[1,1′-biphenyl]-3-yl)methyl]pyrrolidin-3-yl}cycloproapnesulfonamide] |
| 86 | CCS(=O)(=O)N[C@@H]1[C@H](Cc2cccc(-c3cc(F)cc(F)c3)c2)N(C(=O)C(C)C)CC1(F)F [Example 116, N-[(2S,3R)-2-[(3′,5′-difluoro[1,1′-biphenyl]-3-yl)methyl]-4,4-difluoro-1-(2-methylpropanoyl)pyrrolidin-3-yl]ethanesulfonamide] |
| 91 | CCS(=O)(=O)N[C@@H]1[C@H](Cc2cccc(-c3cc(F)c(F)cc3F)c2F)N(C(=O)C2CCO2)CC1(F)F (stereo partly drawn) [Example 469, N-{(2S,3R)-4,4-difluroo-1-(oxetane-2-carbonyl)-2-[(2,2′,4′5′-tetrafluoro[1,1′-biphenyl]-3-yl)methyl]pyrrolidin-3-yl}ethanesulfonamide] |
